Laboratory results taken from patent US20100137353A1, “TRICYCLIC COMPOUNDS AS ANTIBACTERIALS” (GLAXO GROUP LIMITED, priority 2007, published 2010).
Where a name gives a salt, the structure may show the parent alone.

What was measured:
[1] = Whole-cell antimicrobial activity assay, broth microdilution (CLSI M7-A7); type: cell-based; conditions: against a strain of at least one of the organisms listed; tested in at least one exemplified salt form; dilutions 0.016 to 16 mcg/mL; read-out: MIC (minimum inhibitory concentration)
Method: Whole-cell antimicrobial activity was determined by broth microdilution using the Clinical and Laboratory Standards Institute (CLSI) recommended procedure, Document M7-A7, “Methods for Dilution Susceptibility Tests for Bacteria that Grow Aerobically”. The compounds were tested in serial two-fold dilutions ranging from 0.016 to 16 mcg/mL.
The minimum inhibitory concentration (MIC) was determined as the lowest concentration of compound that inhibited visible growth. A mirror reader was used to assist in determining the MIC endpoint.
Compounds were evaluated against Gram-positive organisms, including Staphylococcus aureus, Streptococcus pneumoniae, Streptococcus pyogenes, Enterococcus faecalis and Enterococcus faecium.
In addition, compounds were evaluated against Gram-negative strains including Haemophilus influenzae, Moraxella catarrhalis, Escherichia coli, Pseudomonas aeruginosa, Proteus mirabilis, Enterobacter cloacae, Enterobacter aerogenes, Klebsiella pneumoniae and Stenotrophomonas maltophilia.

[2] = system: Mycobacterium tuberculosis H37Rv; experiment: Mycobacterium tuberculosis H37Rv Inhibition Assay; type: cell-based; conditions: ATCC 25618 / H37Rv, H37Rv strain (ATCC25618), Middlebrook 7H9+ADC, resazurin fluorescence readout
Method: Mycobacterium tuberculosis H37Rv Inhibition Assay
The measurement of the minimum inhibitory concentration (MIC) for each tested compound was performed in 96 wells flat-bottom, polystyrene microtiter plates. Ten two-fold drug dilutions in neat DMSO starting at 400 μM were performed. Five μl of these drug solutions were added to 95 μl of Middlebrook 7H9 medium. (Lines A-H, rows 1-10 of the plate layout). Isoniazid was used as a positive control, 8 two-fold dilution of Isoniazid starting at 160 μgml^−1 was prepared and 5 μl of this control curve was added to 95 μl of Middlebrook 7H9 (Difco catalogue Ref. 271310)+ADC medium (Becton Dickinson Catalogue Ref 211887). (Row 11, lines A-H). Five μl of neat DMSO were added to row 12 (growth and Blank controls).
The inoculum was standardised to approximately 1×10^7 cfu/ml and diluted 1 in 100 in Middlebrook 7H9+ADC medium and 0.025% Tween 80 (Sigma P4780), to produce the final inoculum of H37Rv strain (ATCC25618). One hundred μl of this inoculum was added to the entire plate but G-12 and H-12 wells (Blank controls). All plates were placed in a sealed box to prevent drying out of the peripheral wells and they were incubated at 37° C. without shaking for six days. […] Fluorescence was measured (Spectramax M5 Molecular Devices, Excitation 530 nm, Emission 590 nm) after 48 hours to determine the MIC value. […]

| Structure (SMILES) | MIC [1] [µg/mL] | MIC [2] [µg/mL] |
| --- | --- | --- |
| O=c1ccc2ncc(F)c3c2n1C[C@@]3(O)CN1CCC(NC/C=C/c2ccccn2)CC1 [Example 1, (4S)-3-Fluoro-4-hydroxy-4-[(4-{[(2E)-3-(2-pyridinyl)-2-propen-1-yl]amino}-1-piperidinyl)methyl]-4,5-dihydro-7H-pyrrolo[3,2,1-de]-1,5-naphthyridin-7-one dihydrochloride] | ≤ 2 |  |
| O=c1ccc2ncc(F)c3c2n1C[C@@]3(O)CN1CCC(NC/C=C/c2ccco2)CC1 [Example 2, (4S)-3-Fluoro-4-[(4-{[(2E)-3-(2-furanyl)-2-propen-1-yl]amino}-1-piperidinyl)methyl]-4-hydroxy-4,5-dihydro-7H-pyrrolo[3,2,1-de]-1,5-naphthyridin-7-one dihydrochloride] | ≤ 2 | ≤ 5.1 |
